# From ChEMBL document CHEMBL3272017, “Adrenergic sulfonanilides. 4. Centrally active beta-adrenergic agonists” (J Med Chem, 1976)
# Active and inactive are the calls of the source. No cut-off for these calls is given here.
# What was measured:
# Rattus norvegicus [1] = experiment: Antagonism of morphine-induced analgesia in rat at 20 mg/kg, sc; format: functional
# Cavia porcellus [2] = organism: Cavia porcellus; experiment: Agonist activity at beta-adrenoceptor in guinea pig tracheal spiral assessed as potency for 75% relaxation of spontaneous contraction relative to soterenol; format: tissue-based; conditions: Trachea
# [3] = Activity at alpha-adrenoceptor in rat seminal vesicle assessed as potency for producing 50% of that of l-epinephrine-induced contraction relative to soterenol; format: tissue-based
# [4] = Blockade of alpha-adrenoceptor in rat seminal vesicle relative to phentolamine; format: tissue-based
# Mus musculus [5] = experiment: Inhibition of reserpine-induced ptosis in po dosed mouse; format: functional
# Mus musculus [6] = experiment: Analgesic activity in sc dosed mouse assessed as reduction in phenylalanine-induced writhing; format: functional
# Mus musculus [7] = experiment: Reversal of reserpine-induced ptosis in po dosed mouse; format: functional
# Rattus norvegicus [8] = experiment: Antagonism of morphine-induced analgesia in rat at 1.2 mg/kg, sc; format: functional, organism-based; parameters: dose 1.2 mg/kg
# Hypothalamus [9] = experiment: Drug uptake in Sprague-Dawley rat hypothalamus at 0.3 mg/kg, ip after 30 mins; format: ADME, organism-based; parameters: dose 0.3 mg/kg, route intraperitoneal; conditions: in vivo, 0.5 h
# Brain = experiment: Drug uptake in Sprague-Dawley rat whole brain at 0.2 mg/kg, ip after 30 mins; format: ADME, organism-based; parameters: dose 0.2 mg/kg, route intraperitoneal; conditions: in vivo, 0.5 h
# Hypothalamus [10] = experiment: Drug uptake in Sprague-Dawley rat hypothalamus at 0.2 mg/kg, ip after 30 mins; format: ADME, organism-based; parameters: dose 0.2 mg/kg, route intraperitoneal; conditions: in vivo, 0.5 h
# Rattus norvegicus [11] = experiment: Antagonism of morphine-induced analgesia in sc dosed rat
# Rattus norvegicus [12] = organism: Rattus norvegicus; experiment: Anorexiant activity in rat by free feeding method relative to d-amphetamine; format: functional
# Rattus norvegicus [13] = experiment: Analgesic activity in sc dosed rat by tail flick test; format: functional
# Canis familiaris = organism: Canis familiaris; experiment: Anorexiant activity in dog by free feeding method relative to d-amphetamine; format: functional, Canis lupus familiaris
# Cavia porcellus [14] = organism: Cavia porcellus; experiment: Blockade of beta-adrenoceptor in guinea pig tracheal spiral relative to sotalol; format: tissue-based; conditions: Trachea
# Rattus norvegicus [15] = organism: Rattus norvegicus; conditions: Tail
# Rattus norvegicus [16] = experiment: Induction of cAMP level in Sprague-Dawley rat hypothalamus at 0.3 mg/kg, sc cotreated with 15 mg/kg, sc morphine 30 mins before sacrifice; format: functional, organism-based
# Rattus norvegicus [17] = experiment: Effect on cAMP level in Sprague-Dawley rat liver at 0.3 mg/kg, sc after 30 mins; format: functional, organism-based; parameters: dose 0.3 mg/kg
# Rattus norvegicus [18] = experiment: Induction of cAMP level in Sprague-Dawley rat hypothalamus at 0.3 mg/kg, sc after 30 mins; format: functional, organism-based; parameters: dose 0.3 mg/kg
# Rattus norvegicus [19] = experiment: Effect on cAMP level in Sprague-Dawley rat cortex at 0.3 mg/kg, sc after 30 mins; format: functional, organism-based; parameters: dose 0.3 mg/kg
# Rattus norvegicus [20] = experiment: Effect on cAMP level in Sprague-Dawley rat striatum at 0.3 mg/kg, sc after 30 mins; format: functional, organism-based; parameters: dose 0.3 mg/kg
# Rattus norvegicus [21] = experiment: Effect on cAMP level in Sprague-Dawley rat heart at 0.3 mg/kg, sc after 30 mins; format: functional, organism-based; parameters: dose 0.3 mg/kg
# Mus musculus [22] = experiment: Inhibition of reserpine-induced ptosis in po dosed mouse at 25 mg/kg, po; format: functional, organism-based; parameters: dose 25 mg/kg
# [23] = Mus musculus, po, read-out: ED50
# [24] = Mus musculus, sc, read-out: ED50
smiles,measurement,setting,value
CS(=O)(=O)Nc1ccc(C(O)CNC2CC2)cc1 (stereo unspecified),Activity,Rattus norvegicus [1],inactive
CC[C@H](NC1CC1)[C@H](O)c1ccc(O)c(NS(C)(=O)=O)c1.Cl (relative stereo),Activity,Rattus norvegicus [1],inactive
same,fold change (FC),Cavia porcellus [2],0.23
same,fold change (FC),[3],0
same,fold change (FC),[4],0.000045
same,ED50,Mus musculus [5]; [23],20 mg/kg
same,ED50,Mus musculus [6]; [24],> 6 mg/kg
same,ED50,Mus musculus [7]; [23],8.9 mg/kg
CS(=O)(=O)Nc1cc(C(O)CNC2CC2)ccc1O (stereo in doubt; 46),fold change (FC),Cavia porcellus [2],0.0035
same,Activity,Rattus norvegicus [8],inactive
CC(C)NCC(O)c1ccc(O)c(NS(C)(=O)=O)c1.Cl (stereo unspecified) [SOTERENOL HYDROCHLORIDE],Drug uptake,Hypothalamus [9],Active
same,Drug uptake,Brain,Not Active
same,Drug uptake,Hypothalamus [10],Not Active
Cl.Oc1ccc(CCNC2CC2)cc1O,Activity,Rattus norvegicus [1]; route subcutaneous,32.8%
same,ED50,Mus musculus [6]; [24],> 6 mg/kg
CS(=O)(=O)Nc1cc(C(O)CNC2(Cc3ccccc3)CC2)ccc1O.Cl (stereo unspecified),ED50,Rattus norvegicus [11],4.7 mg/kg
same,fold change (FC),Cavia porcellus [2],0.14
same,ED50,Mus musculus [5]; [23],0.15 mg/kg
same,ED50,Mus musculus [7]; [23],0.32 mg/kg
CS(=O)(=O)Nc1cc(C(O)CNC2CC2)ccc1O.Cl (stereo in doubt; 46),fold change (FC),[3],0
same,ED50,Mus musculus [5],31.3 mg/kg
same,ED50,Mus musculus [6],>50 mg/kg
CS(=O)(=O)Nc1cc(C(O)CNC2CC2)ccc1O.Cl (stereo in doubt; 44),ED50,Rattus norvegicus [11],0.275 mg/kg
same,fold change (FC),Rattus norvegicus [12],22
same,ED50,Rattus norvegicus [13],5 mg/kg
same,fold change (FC),Canis familiaris,22
same,fold change (FC),[3],68.8
same,ED50,Mus musculus [5],0.265 mg/kg
same,ED50,Mus musculus [6],0.56 mg/kg
same,ED50,Mus musculus [7]; [23],0.255 mg/kg
CN1CC[C@]23c4c5ccc(O)c4O[C@H]2[C@@H](O)C=C[C@H]3[C@H]1C5.CN1CC[C@]23c4c5ccc(O)c4O[C@H]2[C@@H](O)C=C[C@H]3[C@H]1C5.O=S(=O)(O)O,ED50,Rattus norvegicus [13],1.9 mg/kg
same,ED50,Mus musculus [6]; [24],0.62 mg/kg
C[C@H](NC1CC1)[C@H](O)c1cccc(NS(C)(=O)=O)c1.Cl (relative stereo),fold change (FC),Cavia porcellus [14],0.1
same,ED50,Mus musculus [6]; [24],> 6 mg/kg
CS(=O)(=O)Nc1cc(O)cc(C(O)CNC2CC2)c1.Cl (stereo unspecified),Activity,Cavia porcellus [2],inactive
same,Activity,[3],Not Active
CS(=O)(=O)Nc1cc(C(O)CNC2CC2)ccc1O.Cl (stereo unspecified),Drug uptake,Hypothalamus [9],Active
same,Drug uptake,Brain,Not Active
same,Drug uptake,Hypothalamus [10],Not Active
CCC(Cc1ccc(O)c(NS(C)(=O)=O)c1)NC1CC1.Cl (stereo unspecified),fold change (FC),Cavia porcellus [2],0.0013
same,ED50,Mus musculus [6]; [24],> 6 mg/kg
CC(C)NCC(O)c1ccc(O)c(NS(C)(=O)=O)c1 (stereo unspecified),Activity,Rattus norvegicus [1],inactive
same,ED50,Rattus norvegicus [15],inactive
CS(=O)(=O)Nc1cc(CCNC2CC2)ccc1O.Cl,ED50,Rattus norvegicus [11],0.21 mg/kg
same,fold change (FC),Rattus norvegicus [12],5.5
same,fold change (FC),Cavia porcellus [2],0.002
same,ED50,Rattus norvegicus [13],2.77 mg/kg
same,fold change (FC),Canis familiaris,5.5
same,ED50,Mus musculus [5]; [23],3.6 mg/kg
same,ED50,Mus musculus [6]; [24],0.62 mg/kg
same,ED50,Mus musculus [7]; [23],1.5 mg/kg
Oc1ccc(C(O)CNC2CC2)cc1Cl (stereo unspecified),Activity,Rattus norvegicus [1]; route subcutaneous,14.5%
same,ED50,Mus musculus [6]; [24],> 6 mg/kg
"CS(=O)(=O)Nc1cc(C(O)CNC2CC2)ccc1O.Cl (single isomer, unassigned; (-))",fold change (FC),[3],108
same,ED50,Mus musculus [5],0.175 mg/kg
same,ED50,Mus musculus [6],0.66 mg/kg
same,ED50,Mus musculus [7],0.23 mg/kg
CCN(CC(O)c1ccc(O)c(NS(C)(=O)=O)c1)C1CC1.Cl (stereo unspecified),Activity,Rattus norvegicus [1],inactive
same,ED50,Mus musculus [6]; [24],> 6 mg/kg
CC1(NCC(O)c2ccc(O)c(NS(C)(=O)=O)c2)CC1.Cl (stereo unspecified),ED50,Rattus norvegicus [11],1 mg/kg
same,fold change (FC),Cavia porcellus [2],2.33
same,ED50,Mus musculus [5]; [23],0.52 mg/kg
same,ED50,Mus musculus [7]; [23],1.1 mg/kg
CC(N)Cc1ccccc1.O=S(=O)(O)O (racemic) [AMPHETAMINE SULFATE],ED50,Mus musculus [5]; [23],0.67 mg/kg
same,ED50,Mus musculus [7]; [23],1.94 mg/kg
CCOC(CNC1CC1)c1ccc(O)c(NS(C)(=O)=O)c1.Cl (stereo unspecified),Activity,Rattus norvegicus [1],inactive
same,ED50,Mus musculus [5]; [23],35 mg/kg
same,ED50,Mus musculus [6]; [24],> 6 mg/kg
same,ED50,Mus musculus [7]; [23],9.6 mg/kg
Cc1cc(C(O)CNC2CC2)cc(NS(C)(=O)=O)c1O.Cl (stereo unspecified),Activity,Rattus norvegicus [1]; route subcutaneous,20.8%
same,fold change (FC),Cavia porcellus [2],5.8e-05
same,fold change (FC),[3],8.7
same,ED50,Mus musculus [5]; [23],0.15 mg/kg
same,ED50,Mus musculus [7]; [23],0.67 mg/kg
CS(=O)(=O)Nc1cccc(C(O)CNC2CC2)c1.Cl (stereo unspecified),fold change (FC),Cavia porcellus [2],< 0.01
same,ED50,Mus musculus [5]; [23],1 mg/kg
same,fold change (FC),Cavia porcellus [14],0.05
same,ED50,Mus musculus [6]; [24],> 6 mg/kg
same,ED50,Mus musculus [7]; [23],0.8 mg/kg
CS(=O)(=O)Nc1cc(C(O)CNC2CC2)cc(Cl)c1O.Cl (stereo unspecified),Activity,Rattus norvegicus [1]; route subcutaneous,20.8%
same,fold change (FC),Cavia porcellus [2],0.048
same,fold change (FC),[3],4.9
same,ED50,Mus musculus [5]; [23],0.072 mg/kg
same,ED50,Mus musculus [6]; [24],> 6 mg/kg
same,ED50,Mus musculus [7]; [23],0.082 mg/kg
CN(C)S(=O)(=O)Nc1cc(C(O)CNC2CC2)ccc1O.Cl (stereo unspecified),ED50,Rattus norvegicus [11],0.72 mg/kg
same,fold change (FC),Cavia porcellus [2],0.028
same,ED50,Rattus norvegicus [13],50 mg/kg
same,ED50,Mus musculus [5]; [23],0.94 mg/kg
same,ED50,Mus musculus [6]; [24],1.7 mg/kg
same,ED50,Mus musculus [7]; [23],1.3 mg/kg
CC(C)NCC(O)c1ccc(O)c(NS(C)(=O)=O)c1 (stereo unspecified) [SOTERENOL],ED50,Mus musculus [5]; [23],7.6 mg/kg
same,ED50,Mus musculus [6]; [24],> 40 mg/kg
same,ED50,Mus musculus [7]; [23],16.5 mg/kg
CC(C)(Cc1ccccc1)NCCc1ccc(O)c(NS(C)(=O)=O)c1,Activity,Rattus norvegicus [1],inactive
same,fold change (FC),Cavia porcellus [2],0.31
CS(=O)(=O)Nc1cc(C(=O)CNC2CC2)ccc1O.Cl,Activity,Rattus norvegicus [1],inactive
same,ED50,Mus musculus [6]; [24],> 6 mg/kg
Oc1ccc(C(O)CNC2CC2)cc1 (stereo unspecified),Activity,Rattus norvegicus [1],inactive
same,fold change (FC),Cavia porcellus [2],0.0136
same,ED50,Rattus norvegicus [15],inactive
same,ED50,Mus musculus [6]; [24],5.6 mg/kg
C=CCN1CC[C@]23c4c5ccc(O)c4O[C@H]2[C@@H](O)C=C[C@H]3[C@H]1C5.Cl [NALORPHINE HYDROCHLORIDE],ED50,Rattus norvegicus [11],0.37 mg/kg
same,ED50,Rattus norvegicus [15],inactive
same,ED50,Mus musculus [6]; [24],2.5 mg/kg
CS(=O)(=O)Nc1cc(C(O)CNC2CC2)ccc1O (stereo in doubt; 44),fold change (FC),Cavia porcellus [2],0.7
same,Activity,Rattus norvegicus [16],Active
same,Activity,Rattus norvegicus [17],inactive
same,Activity,Rattus norvegicus [18],Active
same,Activity,Rattus norvegicus [19],inactive
same,Activity,Rattus norvegicus [20],inactive
same,Activity,Rattus norvegicus [21],inactive
CN(C)CCCN1c2ccccc2CCc2ccccc21.Cl [IMIPRAMINE HYDROCHLORIDE],ED50,Mus musculus [5]; [23],4.97 mg/kg
same,ED50,Mus musculus [7]; [23],> 320 mg/kg
C[C@H](NC1CC1)[C@H](O)c1ccc(O)c(NS(C)(=O)=O)c1.Cl (relative stereo),Activity,Rattus norvegicus [1],inactive
same,fold change (FC),Cavia porcellus [2],0.11
same,ED50,Mus musculus [5]; [23],0.51 mg/kg
same,ED50,Mus musculus [7]; [23],0.76 mg/kg
"CS(=O)(=O)Nc1cc(C(O)CNC2CC2)ccc1O (single isomer, unassigned; (-))",fold change (FC),Cavia porcellus [2],1.9
CS(=O)(=O)Nc1cc(C(O)CNC2CCC2)ccc1O.Cl (stereo unspecified),fold change (FC),Cavia porcellus [2],0.36
same,ED50,Mus musculus [5]; [23],20 mg/kg
same,ED50,Mus musculus [6]; [24],> 6 mg/kg
same,ED50,Mus musculus [7]; [23],24 mg/kg
CC(C)(Cc1ccccc1)NCC(O)c1ccc(O)c(NS(C)(=O)=O)c1.Cl (stereo unspecified) [ZINTEROL HYDROCHLORIDE],ED50,Rattus norvegicus [11],18.8 mg/kg
same,inhibition,Mus musculus [22],inactive
same,fold change (FC),Rattus norvegicus [12],11
same,fold change (FC),Cavia porcellus [2],7.9
same,ED50,Rattus norvegicus [15],inactive
same,fold change (FC),Canis familiaris,11
same,fold change (FC),[3],0
same,fold change (FC),[4],0.1
